Measurements reported in the NIST ThermoML archive (doi:10.1021/je050429b).
Numbers after ± are expanded uncertainties.

Conditions: Gas, Oscillating disk viscometry

With CO [methanol] the viscosity (394.88 K, Amount density=49.53 mol/m3) was 0.01278 ± 0.00058 mPa·s, the viscosity (395.16 K, Amount density=32.22 mol/m3) was 0.01282 ± 0.00059 mPa·s and the viscosity (395.18 K, Amount density=24.58 mol/m3) was 0.01282 ± 0.00059 mPa·s. For the same molecule, the viscosity (395.23 K, Amount density=17.93 mol/m3) was 0.01285 ± 0.00059 mPa·s, the viscosity (395.37 K, Amount density=38.68 mol/m3) was 0.01281 ± 0.00058 mPa·s and the viscosity (395.39 K, Amount density=3.79 mol/m3) was 0.01287 ± 0.00059 mPa·s. For the same molecule, the viscosity (395.4 K, Amount density=13.2 mol/m3) was 0.01285 ± 0.00059 mPa·s, the viscosity (396.23 K, Amount density=6.32 mol/m3) was 0.01291 ± 0.00059 mPa·s and the viscosity (409.39 K, Amount density=13.2 mol/m3) was 0.01333 ± 0.0006 mPa·s. The viscosity (409.51 K, Amount density=10.1 mol/m3) was 0.01336 ± 0.0006 mPa·s, the viscosity (409.75 K, Amount density=24.58 mol/m3) was 0.01333 ± 0.0006 mPa·s and the viscosity (410.18 K, Amount density=32.22 mol/m3) was 0.01333 ± 0.0006 mPa·s. It also gave a viscosity (410.35 K, Amount density=38.68 mol/m3) of 0.01331 ± 0.0006 mPa·s, a viscosity (411.3 K, Amount density=3.79 mol/m3) of 0.01343 ± 0.0006 mPa·s and a viscosity (411.31 K, Amount density=6.32 mol/m3) of 0.01342 ± 0.0006 mPa·s. For the same molecule, the viscosity (411.32 K, Amount density=49.53 mol/m3) was 0.01335 ± 0.0006 mPa·s, the viscosity (412.01 K, Amount density=17.93 mol/m3) was 0.01338 ± 0.0006 mPa·s and the viscosity (412.33 K, Amount density=8.17 mol/m3) was 0.01346 ± 0.0006 mPa·s. For the same molecule, the viscosity (423.31 K, Amount density=8.17 mol/m3) was 0.01382 ± 0.00062 mPa·s, the viscosity (423.5 K, Amount density=3.79 mol/m3) was 0.01383 ± 0.00062 mPa·s and the viscosity (423.52 K, Amount density=49.53 mol/m3) was 0.01376 ± 0.00061 mPa·s. It also gave a viscosity (423.77 K, Amount density=13.2 mol/m3) of 0.01383 ± 0.00062 mPa·s, a viscosity (423.88 K, Amount density=32.22 mol/m3) of 0.0138 ± 0.00061 mPa·s and a viscosity (423.96 K, Amount density=10.1 mol/m3) of 0.01385 ± 0.00062 mPa·s. For the same molecule, the viscosity (424.38 K, Amount density=17.93 mol/m3) was 0.01383 ± 0.00062 mPa·s, the viscosity (424.41 K, Amount density=24.58 mol/m3) was 0.01382 ± 0.00062 mPa·s and the viscosity (424.73 K, Amount density=6.32 mol/m3) was 0.01388 ± 0.00062 mPa·s. The viscosity (425.1 K, Amount density=38.68 mol/m3) was 0.0138 ± 0.00061 mPa·s, the viscosity (437.6 K, Amount density=10.1 mol/m3) was 0.01431 ± 0.00063 mPa·s and the viscosity (437.81 K, Amount density=8.17 mol/m3) was 0.01431 ± 0.00063 mPa·s. It also gave a viscosity (438.41 K, Amount density=13.2 mol/m3) of 0.01432 ± 0.00063 mPa·s, a viscosity (439.16 K, Amount density=32.22 mol/m3) of 0.01431 ± 0.00063 mPa·s and a viscosity (439.2 K, Amount density=24.58 mol/m3) of 0.01432 ± 0.00063 mPa·s. The viscosity (439.47 K, Amount density=17.93 mol/m3) was 0.01434 ± 0.00063 mPa·s, the viscosity (439.56 K, Amount density=49.53 mol/m3) was 0.0143 ± 0.00063 mPa·s and the viscosity (440.07 K, Amount density=6.32 mol/m3) was 0.01441 ± 0.00063 mPa·s. It also gave a viscosity (440.61 K, Amount density=3.79 mol/m3) of 0.01441 ± 0.00063 mPa·s, a viscosity (441.61 K, Amount density=38.68 mol/m3) of 0.01437 ± 0.00063 mPa·s and a viscosity (466.95 K, Amount density=24.58 mol/m3) of 0.01528 ± 0.00066 mPa·s. The viscosity (467.33 K, Amount density=10.1 mol/m3) was 0.0153 ± 0.00066 mPa·s, the viscosity (467.34 K, Amount density=38.68 mol/m3) was 0.01528 ± 0.00066 mPa·s and the viscosity (467.49 K, Amount density=49.53 mol/m3) was 0.01528 ± 0.00066 mPa·s. It also gave a viscosity (467.62 K, Amount density=32.22 mol/m3) of 0.01528 ± 0.00066 mPa·s, a viscosity (467.74 K, Amount density=13.2 mol/m3) of 0.01531 ± 0.00066 mPa·s and a viscosity (468.08 K, Amount density=17.93 mol/m3) of 0.01532 ± 0.00066 mPa·s. For the same molecule, the viscosity (468.85 K, Amount density=3.79 mol/m3) was 0.01537 ± 0.00066 mPa·s, the viscosity (496.21 K, Amount density=38.68 mol/m3) was 0.01626 ± 0.00069 mPa·s and the viscosity (496.4 K, Amount density=8.17 mol/m3) was 0.01627 ± 0.00069 mPa·s. It also gave a viscosity (496.41 K, Amount density=17.93 mol/m3) of 0.01629 ± 0.00069 mPa·s, a viscosity (496.43 K, Amount density=13.2 mol/m3) of 0.01627 ± 0.00069 mPa·s and a viscosity (496.44 K, Amount density=24.58 mol/m3) of 0.01629 ± 0.00069 mPa·s. For the same molecule, the viscosity (496.48 K, Amount density=49.53 mol/m3) was 0.01625 ± 0.00069 mPa·s, the viscosity (496.56 K, Amount density=10.1 mol/m3) was 0.01629 ± 0.00069 mPa·s and the viscosity (496.65 K, Amount density=3.79 mol/m3) was 0.01631 ± 0.00069 mPa·s. It also gave a viscosity (496.97 K, Amount density=32.22 mol/m3) of 0.0163 ± 0.00069 mPa·s, a viscosity (525.14 K, Amount density=49.53 mol/m3) of 0.01724 ± 0.00072 mPa·s and a viscosity (525.41 K, Amount density=3.79 mol/m3) of 0.01727 ± 0.00072 mPa·s. It also gave a viscosity (525.42 K, Amount density=8.17 mol/m3) of 0.01727 ± 0.00072 mPa·s, a viscosity (526.17 K, Amount density=32.22 mol/m3) of 0.01727 ± 0.00072 mPa·s and a viscosity (526.39 K, Amount density=13.2 mol/m3) of 0.01729 ± 0.00072 mPa·s. The viscosity (526.84 K, Amount density=24.58 mol/m3) was 0.0173 ± 0.00072 mPa·s, the viscosity (527.02 K, Amount density=38.68 mol/m3) was 0.01727 ± 0.00072 mPa·s and the viscosity (527.99 K, Amount density=17.93 mol/m3) was 0.01734 ± 0.00072 mPa·s. For the same molecule, the viscosity (546.79 K, Amount density=8.17 mol/m3) was 0.018 ± 0.00074 mPa·s, the viscosity (546.84 K, Amount density=13.2 mol/m3) was 0.01798 ± 0.00074 mPa·s and the viscosity (547.13 K, Amount density=3.79 mol/m3) was 0.01802 ± 0.00074 mPa·s. The viscosity (547.3 K, Amount density=32.22 mol/m3) was 0.01801 ± 0.00074 mPa·s, the viscosity (547.49 K, Amount density=38.68 mol/m3) was 0.018 ± 0.00074 mPa·s and the viscosity (548.04 K, Amount density=49.53 mol/m3) was 0.01803 ± 0.00074 mPa·s. For the same molecule, the viscosity (548.52 K, Amount density=17.93 mol/m3) was 0.01806 ± 0.00074 mPa·s, the viscosity (567.4 K, Amount density=13.2 mol/m3) was 0.01868 ± 0.00076 mPa·s and the viscosity (567.53 K, Amount density=32.22 mol/m3) was 0.01872 ± 0.00076 mPa·s. For the same molecule, the viscosity (568.11 K, Amount density=38.68 mol/m3) was 0.01872 ± 0.00076 mPa·s, the viscosity (569.26 K, Amount density=3.79 mol/m3) was 0.01879 ± 0.00076 mPa·s and the viscosity (569.93 K, Amount density=49.53 mol/m3) was 0.01875 ± 0.00076 mPa·s. It also gave a viscosity (571.83 K, Amount density=17.93 mol/m3) of 0.01886 ± 0.00077 mPa·s, a viscosity (596.93 K, Amount density=13.2 mol/m3) of 0.01969 ± 0.00079 mPa·s and a viscosity (597.12 K, Amount density=32.22 mol/m3) of 0.01975 ± 0.00079 mPa·s. The viscosity (597.15 K, Amount density=17.93 mol/m3) was 0.01973 ± 0.00079 mPa·s, the viscosity (597.28 K, Amount density=49.53 mol/m3) was 0.01971 ± 0.00079 mPa·s and the viscosity (597.6 K, Amount density=3.79 mol/m3) was 0.01977 ± 0.00079 mPa·s. The viscosity (598.6 K, Amount density=38.68 mol/m3) was 0.01979 ± 0.00079 mPa·s and the viscosity (602.56 K, Amount density=8.17 mol/m3) was 0.01994 ± 0.0008 mPa·s.
